Measured values: patent US8664217B2, “Benzodiazepine compound and pharmaceutical composition” (Otsuka Pharmaceutical Co., Ltd., priority 2008, dated 2014)
Structures can show the parent of a compound that is named as a salt.

Target: T1, human GIRK1/4 channels (Homo sapiens, UniProt P48544+P48549)
T1 construct: Full-length human GIRK1 cDNA was cloned from HuH cell- and HeLa cell-derived cDNA libraries; Full-length GIRK4 cDNA was amplified from a human heart cDNA library; expressed in transfected cells; host or cells: FLP-IN-CHO cells (Invitrogen)
T1 sequence (P48549 1-501): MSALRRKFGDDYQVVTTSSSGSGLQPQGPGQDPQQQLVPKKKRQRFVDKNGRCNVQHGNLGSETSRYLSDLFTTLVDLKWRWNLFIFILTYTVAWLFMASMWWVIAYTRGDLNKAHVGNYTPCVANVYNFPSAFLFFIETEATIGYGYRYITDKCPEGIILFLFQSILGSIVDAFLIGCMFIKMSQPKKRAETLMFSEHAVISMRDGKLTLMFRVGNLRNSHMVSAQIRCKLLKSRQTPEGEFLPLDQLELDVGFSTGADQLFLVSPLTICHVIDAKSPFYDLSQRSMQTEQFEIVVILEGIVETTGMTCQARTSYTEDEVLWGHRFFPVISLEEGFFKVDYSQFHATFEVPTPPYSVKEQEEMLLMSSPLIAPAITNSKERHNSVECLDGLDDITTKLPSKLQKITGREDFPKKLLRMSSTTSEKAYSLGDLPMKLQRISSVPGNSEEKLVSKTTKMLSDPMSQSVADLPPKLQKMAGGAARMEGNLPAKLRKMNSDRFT
T1 sequence (P48544 1-419): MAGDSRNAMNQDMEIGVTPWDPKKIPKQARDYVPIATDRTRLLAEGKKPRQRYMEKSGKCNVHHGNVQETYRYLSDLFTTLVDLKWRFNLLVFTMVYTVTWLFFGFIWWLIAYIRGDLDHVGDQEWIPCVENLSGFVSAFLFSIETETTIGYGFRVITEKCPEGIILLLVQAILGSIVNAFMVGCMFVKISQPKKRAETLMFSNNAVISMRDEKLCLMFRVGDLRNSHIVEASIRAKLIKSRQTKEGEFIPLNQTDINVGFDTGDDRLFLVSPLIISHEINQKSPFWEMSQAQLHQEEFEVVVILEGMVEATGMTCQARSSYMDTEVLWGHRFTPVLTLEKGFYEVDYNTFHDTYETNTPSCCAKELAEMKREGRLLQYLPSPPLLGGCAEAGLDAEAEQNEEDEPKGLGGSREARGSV
Test: Measurement of human GIRK1/4 channel current by whole-cell patch clamp method (human GIRK1/4-expressing CHO cell line)
Type: cell-based
Details: whole-cell patch clamp, human GIRK1/4-expressing CHO cells; step end current at −120 mV; test compound 0.1, 1, 10 μM; read-out: GIRK¼ IC50
Description: (2) Production of CHO Cell Line Expressing Human GIRK1/4
CHO cell lines stably expressing human GIRK1/4 channels were prepared in the following manner.
Full-length human GIRK1 cDNA was cloned from HuH cell- and HeLa cell-derived cDNA libraries. Full-length GIRK4 cDNA was amplified from a human heart cDNA library (produced by Clontech Laboratories, Inc.) by PCR using synthetic primers shown in Table 1, and cloned into the Eco-RI restriction enzyme site of pCR-Blunt (produced by Invitrogen Corporation) or into the HincII site of pUC118 (produced by Takara Bio, Inc.).
The obtained human GIRK1 and GIRK4 cDNA sequences correspond to known sequences (NCBI database: GIRK1 (NM_002239) and GIRK4 (NM_000890) respectively). The obtained GIRK1 and GIRK4 cDNA sequences were cloned into the Eco-RI restriction enzyme site of pCR-Blunt (available from Invitrogen Corporation) or into the HincII site of pUC118 (available from Takara Bio, Inc.). A GIRK4 expression vector was constructed by insertion into the BamHI-XhoI site of pcDNA5/FRT. A GIRK1 expression vector was constructed by insertion into the KpnI-XhoI site of pcDNA3.1(+) or pCAG_neo. FLP-IN-CHO cells (produced by Invitrogen Corporation) were transfected with human GIRK1 and GIRK4 expression vectors by using Lipofectamine 2000 (produced by Invitrogen Corporation) according to the protocol enclosed with the reagent or using an electronic induction method (“Nucleofector Kit-T”, produced by Amaxa). First, the cells transfected with the GIRK4 expression vector were cultured in a 10% serum-containing F12 medium (produced by Sigma) supplemented with 600 μg/ml of hygromycin in an incubator with 5% carbon dioxide at 37° C. Then the cells expressing GIRK4 were transfected with the GIRK1 expression vector and were cultured in 10% serum-containing F12 medium supplemented with 350 μg/ml of G418 and 600 μg/ml of hygromycin in an incubator with 5% carbon dioxide at 37° C. to select GIRK1/4 expressing cell lines. Cell populations whose growth was observed after about 2 weeks were isolated using cloning rings, and the obtained single colonies were proliferated. RNA was extracted from single colonies, and single-stranded cDNA was synthesized by a cDNA synthesis kit (produced by Invitrogen Corporation), and the amount of expression was quantified at the mRNA level by real-time PCR (Applied Biosystems, Ltd.). Finally, the expressed current was analyzed by patch clamp method described below. The cell lines expressing a current of 500 pA or more per cell were selected as channel-expressing cell lines for activity measurement by patch clamping method.
(4) Measurement of Ion Channel Current by Patch Clamp Method (Human GIRK1/4-Expressing CHO-K1 Cell Line)
An experiment was carried out using a patch clamp setup at room temperature (20 to 26° C.). A perfusion chamber having a diameter of 20 mm (flow rate: about 5 ml/min) was mounted on the stage of a phase-contrast inverted microscope (produced by Nikon Corporation) placed on a vibration isolation table. A poly-L-lysine (produced by Sigma)-coated coverslip (diameter: 15 mm, produced by Matsunami Glass Ind., Ltd.) on which human GIRK1/4-expressing cells were cultured was placed in the perfusion chamber.
Hyperpolarizing stimulation pulses were applied and ionic current was recorded using a patch clamp amplifier (EPC-7 or EPC-7 PLUS, manufactured by HEKA) and a personal computer (manufactured by IBM Corp.) in which software for data acquisition and analysis of ion channel current (PULSE 8.77, manufactured by HEKA) was installed. The current was measured in the whole-cell configuration of the patch-clamp technique. The tip (resistance: 2 to 4 MΩ) of a borosilicate glass pipette (produced by Sutter Instrument Co.) was gently placed on the cell membrane by using a three-dimensional mechanical micromanipulator (produced by Shoshin EM Corporation). […] Subsequently, stronger suction was applied to break the cell membrane. […]

Compound: CCN1C(=O)C(C)(C)C(=O)N(C)c2cc(OCCCN(CCc3cccnc3)C(=O)c3ccccc3)ccc21 [Example 633, N-[3-(1-ethyl-3,3,5-trimethyl-2,4-dioxo-2,3,4,5-tetrahydro-1H-benzo[b][1,4]diazepin-7-yloxy)propyl]-N-(2-pyridin-3-ylethyl)benzamide hydrochloride]
- IC50: 8.4 µM

Compound: CCN1C(=O)C(C)(C)C(=O)N(C)c2cc(OCCCN(CCn3ccc4ccccc4c3=O)S(=O)(=O)c3ccccc3)ccc21 [Example 634, N-[3-(1-ethyl-3,3,5-trimethyl-2,4-dioxo-2,3,4,5-tetrahydro-1H-benzo[b][1,4]diazepin-7-yloxy)propyl]-N-[2-(1-oxo-1H-isoquinolin-2-yl)ethyl]benzenesulfonamide]
- IC50: 0.49 µM
